What was measured:
[1] = biological target: T1, Amine oxidase [flavin-containing] A (Homo sapiens, UniProt P21397); experiment: Inhibition of recombinant human MAO-A assessed as reduction in H2O2 production preincubated for 30 mins followed by p-tyramine substrate addition measured after 30 mins by amplex red reagent based fluorescence assay
T1 sequence (P21397 whole entry): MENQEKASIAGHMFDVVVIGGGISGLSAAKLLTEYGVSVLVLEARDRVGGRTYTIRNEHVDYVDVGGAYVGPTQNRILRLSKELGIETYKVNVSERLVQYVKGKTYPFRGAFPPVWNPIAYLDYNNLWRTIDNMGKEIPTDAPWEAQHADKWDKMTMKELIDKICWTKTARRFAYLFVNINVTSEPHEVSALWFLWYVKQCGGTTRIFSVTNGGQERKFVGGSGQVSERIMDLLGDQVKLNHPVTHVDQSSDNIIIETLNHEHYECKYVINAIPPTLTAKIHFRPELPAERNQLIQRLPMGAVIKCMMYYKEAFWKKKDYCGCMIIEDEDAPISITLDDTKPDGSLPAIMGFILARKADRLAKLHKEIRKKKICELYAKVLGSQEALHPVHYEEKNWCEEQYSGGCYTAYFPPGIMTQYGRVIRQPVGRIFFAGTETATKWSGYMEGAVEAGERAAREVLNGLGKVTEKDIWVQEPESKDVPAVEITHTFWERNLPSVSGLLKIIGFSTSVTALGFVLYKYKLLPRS

[2] = biological target: T2, Amine oxidase [flavin-containing] B (Homo sapiens, UniProt P27338)
T2 sequence (P27338 whole entry): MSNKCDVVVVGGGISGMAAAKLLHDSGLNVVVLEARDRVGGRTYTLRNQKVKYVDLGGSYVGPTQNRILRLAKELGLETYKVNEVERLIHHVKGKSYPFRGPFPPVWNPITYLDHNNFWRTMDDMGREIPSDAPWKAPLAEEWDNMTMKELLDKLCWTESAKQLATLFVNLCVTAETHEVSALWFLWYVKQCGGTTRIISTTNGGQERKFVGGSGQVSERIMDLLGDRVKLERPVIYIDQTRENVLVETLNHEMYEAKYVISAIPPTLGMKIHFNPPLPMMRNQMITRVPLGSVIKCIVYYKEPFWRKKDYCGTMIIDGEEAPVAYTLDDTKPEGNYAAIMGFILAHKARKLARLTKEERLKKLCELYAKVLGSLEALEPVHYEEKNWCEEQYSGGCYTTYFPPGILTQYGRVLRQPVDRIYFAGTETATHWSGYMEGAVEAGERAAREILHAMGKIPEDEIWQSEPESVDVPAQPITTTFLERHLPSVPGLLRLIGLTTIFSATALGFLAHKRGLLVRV
Description: Inhibition of recombinant human MAO-B assessed as reduction in H2O2 production preincubated for 30 mins followed by p-tyramine substrate addition measured after 30 mins by amplex red reagent based fluorescence assay

Homo sapiens = species: Homo sapiens; experiment: Selectivity index, ratio of Ki for recombinant human MAO-B to Ki for recombinant human MAO-A
[3] = biological target: T1, Amine oxidase [flavin-containing] A; experiment: Competitive inhibition of recombinant human MAO-A assessed as reduction in H2O2 production preincubated for 30 mins followed by p-tyramine substrate addition measured after 30 mins by Lineweaver-Burk plot analysis; conditions: 0.5 h
[4] = biological target: T1, Amine oxidase [flavin-containing] A; experiment: Reversible inhibition of recombinant human MAO-A assessed as enzyme activity recovery at 5 time Ki value preincubated for 15 mins followed by dilution of enzyme-inhibitor mixture for 24 hrs and subsequent p-tyramine substrate addition by dialysis method
[5] = Cytotoxicity against human HepG2 cells assessed as cell viability at 1 uM after 24 hrs by MTT assay relative to control; format: cell-based; conditions: read-out: Activity
[6] = Cytotoxicity against human HepG2 cells assessed as cell viability at 5 uM after 24 hrs by MTT assay relative to control; format: cell-based; conditions: read-out: Activity
[7] = Cytotoxicity against human HepG2 cells assessed as cell viability at 25 uM after 24 hrs by MTT assay relative to control; format: cell-based; conditions: read-out: Activity
in vitro = conditions: PAMPA
Description: Permeability of the compound at 50 ug/ml after 16 hrs by PAMPA

[8] = biological target: T1, Amine oxidase [flavin-containing] A; experiment: Suicide inhibition of recombinant human MAO-A assessed as reduction in H2O2 production preincubated for 30 mins followed by p-tyramine substrate addition measured after 30 mins by Lineweaver-Burk plot analysis; conditions: 0.5 h
[9] = biological target: T1, Amine oxidase [flavin-containing] A; experiment: Irreversible inhibition of recombinant human MAO-A at 5 time Ki value preincubated for 15 mins followed by dilution of enzyme-inhibitor mixture for 24 hrs and subsequent p-tyramine substrate addition by dialysis method

Q: Which Ki [1] does the source give for COc1cc(C2=NN(C(=O)c3ccccc3)C(c3ccc(Cl)cc3)C2)ccc1O (configuration not stated) here?
A: 26.2 µM

Q: What about the Ki [2] of the same compound?
A: 6000 µM

Q: And the Ratio Ki (Homo sapiens)?
A: 229

Q: And the “inhibition (INH)” value [3]?
A: Active

Q: And the “inhibition (INH)” value [4]?
A: Active

Q: And the viability at 24 h, 1 µM [5]?
A: 90%

Q: And the viability at 24 h, 5 µM [6]?
A: 86.3%

Q: And the viability at 24 h, 25 µM [7]?
A: 78.2%

Q: Which Ki [1] does the source give for COc1cc(C2=NN(S(=O)(=O)c3ccc(C)cc3)C(c3ccc(Cl)cc3)C2)ccc1O (configuration not stated) here?
A: 40 µM

Q: What about the Ki [2] of the same compound?
A: 6000 µM

Q: What about the Ratio Ki (Homo sapiens) of the same compound?
A: 150

Q: And the “inhibition (INH)” value [3]?
A: Active

Q: What about the “inhibition (INH)” value [4] of the same compound?
A: Active

Q: And the viability at 24 h, 1 µM [5]?
A: 91.2%

Q: And the viability at 24 h, 5 µM [6]?
A: 79.5%

Q: And the viability at 24 h, 25 µM [7]?
A: 64.1%

Q: And the Papp at 16 h, 50 ug/ml (in vitro)?
A: 12 ×10⁻⁶ cm/s

Q: Which results are given for COc1cc(C2=NN(C(=S)Nc3ccccc3)C(c3ccc(Cl)cc3)C2)ccc1O (configuration not stated)?
A: Ki [1]: 19.6 µM; Ki [2]: 4770 µM; Ratio Ki (Homo sapiens): 244; inhibition (INH) [3]: Active; inhibition (INH) [4]: Active; viability at 24 h, 1 µM [5]: 95%; viability at 24 h, 5 µM [6]: 88.2%; viability at 24 h, 25 µM [7]: 80.3%; Papp at 16 h, 50 ug/ml (in vitro): 9.55 ×10⁻⁶ cm/s

Q: Which Papp at 16 h, 50 ug/ml (in vitro) does the source give for CCn1cc(C(=O)O)c(=O)c2cc(F)c(N3CCNC(C)C3)c(F)c21 (configuration not stated) [LOMEFLOXACIN] here?
A: 1.24 ×10⁻⁶ cm/s

Q: For C#CCN(C)[C@H](C)Cc1ccccc1 [SELEGILINE], which “inhibition (INH)” value [8] is on record?
A: Active

Q: What about the “inhibition (INH)” value [9] of the same compound?
A: Active

Q: For COc1cc(C2=NN(C(=O)Oc3ccccc3)C(c3ccc(Cl)cc3)C2)ccc1O (configuration not stated), which Ki [1] is on record?
A: 193 µM

Q: What about the Ki [2] of the same compound?
A: 5770 µM

Q: And the Ratio Ki (Homo sapiens)?
A: 29.9

Q: And the “inhibition (INH)” value [3]?
A: Active

Q: What about the “inhibition (INH)” value [4] of the same compound?
A: Active

Q: And the viability at 24 h, 1 µM [5]?
A: 93.1%

Q: And the viability at 24 h, 5 µM [6]?
A: 81.7%

Q: What about the viability at 24 h, 25 µM [7] of the same compound?
A: 77%

Q: For O=C(NCCN1CCOCC1)c1ccc(Cl)cc1 [MOCLOBEMIDE], which “inhibition (INH)” value [3] is on record?
A: Active

Q: And the “inhibition (INH)” value [4]?
A: Active

Q: For NCCNC(=O)c1ccc(Cl)cn1 [LAZABEMIDE], which Ki [1] is on record?
A: 7900 µM

Q: What about the “inhibition (INH)” value [3] of the same compound?
A: Active

Q: And the “inhibition (INH)” value [4]?
A: Active

Q: Which Papp at 16 h, 50 ug/ml (in vitro) does the source give for C[C@]12CC[C@@H]3c4ccc(O)cc4CC[C@H]3[C@@H]1CC[C@@H]2O [ESTRADIOL] here?
A: 11.8 ×10⁻⁶ cm/s

Q: Which Ki [1] does the source give for COc1cc(C2=NNC(c3ccc(Cl)cc3)C2)ccc1O (configuration not stated) here?
A: 0.08 µM

Q: And the Ki [2]?
A: 140 µM

Q: What about the Ratio Ki (Homo sapiens) of the same compound?
A: 1750

Q: And the “inhibition (INH)” value [3]?
A: Active

Q: What about the “inhibition (INH)” value [4] of the same compound?
A: Active

Q: What about the viability at 24 h, 1 µM [5] of the same compound?
A: 99%

Q: And the viability at 24 h, 5 µM [6]?
A: 94.5%

Q: And the viability at 24 h, 25 µM [7]?
A: 90.2%

Q: What about the Papp at 16 h, 50 ug/ml (in vitro) of the same compound?
A: 13.9 ×10⁻⁶ cm/s

Source: ChEMBL document CHEMBL4257534, “Curcumin-based pyrazoline analogues as selective inhibitors of human monoamine oxidase A” (Medchemcomm, 2018)
